Source: ChEMBL document CHEMBL1127098, “Anticonvulsant activity of glycine-site NMDA antagonists. 1. 2-carboxyl prodrugs of 5,7-dichlorokynurenic acid” (Bioorg Med Chem Lett, 1993)

Experiments:
Mus musculus [1] = assay: Tested for anticonvulsant activity by the antagonism of audiogenic seizures in DBA/2 mice and number of mice protected from tonic seizure/number of mice tested at 250 mg/kg dose after 15 mins was reported (8 out of 8); format: functional
Mus musculus [2] = assay: Tested for the effective dose required for anticonvulsant activity when given intraperitoneally after 15 minutes in DBA/2 mice; format: functional; settings: ip, 0.25 h
Mus musculus [3] = assay: Tested for anticonvulsant activity by the antagonism of audiogenic seizures in DBA/2 mice and number of mice protected from tonic seizure/number of mice tested at 250 mg/kg dose after 30 mins was reported (7 out of 8); format: functional
Mus musculus [4] = assay: Tested for anticonvulsant activity by the antagonism of audiogenic seizures in DBA/2 mice and number of mice protected from tonic seizure/number of mice tested at 250 mg/kg dose after 60 mins was reported (5 out of 8); format: functional
Mus musculus [5] = assay: Tested for anticonvulsant activity by the antagonism of audiogenic seizures in DBA/2 mice and number of mice protected from tonic seizure/number of mice tested at 250 mg/kg dose after 120 mins was reported (0 out of 8); format: functional
[6] = Half-life at pH 7.4; format: ADME; settings: buffer
Mus musculus [7] = assay: Tested for anticonvulsant activity by the antagonism of audiogenic seizures in DBA/2 mice and number of mice protected from tonic seizure/number of mice tested at 250 mg/kg dose after 30 mins was reported (8 out of 8); format: functional
Mus musculus [8] = assay: Tested for anticonvulsant activity by the antagonism of audiogenic seizures in DBA/2 mice and number of mice protected from tonic seizure/number of mice tested at 250 mg/kg dose after 60 mins was reported (5 out of 7); format: functional
Mus musculus [9] = assay: Tested for anticonvulsant activity by the antagonism of audiogenic seizures in DBA/2 mice and number of mice protected from tonic seizure/number of mice tested at 250 mg/kg dose after 120 mins was reported (1 out of 8); format: functional
Mus musculus [10] = assay: Tested for the effective dose required for anticonvulsant activity when given intraperitoneally after 30 minutes in DBA/2 mice; format: functional; settings: ip, 0.5 h
Mus musculus [11] = assay: Tested for anticonvulsant activity by the antagonism of audiogenic seizures in DBA/2 mice and number of mice protected from tonic seizure/number of mice tested at 250 mg/kg dose after 15 mins was reported (1 out of 8); format: functional
Mus musculus [12] = assay: Tested for anticonvulsant activity by the antagonism of audiogenic seizures in DBA/2 mice and number of mice protected from tonic seizure/number of mice tested at 250 mg/kg dose after 30 mins was reported (0 out of 8); format: functional
Mus musculus [13] = assay: Tested for anticonvulsant activity by the antagonism of audiogenic seizures in DBA/2 mice and number of mice protected from tonic seizure/number of mice tested at 250 mg/kg dose after 60 mins was reported (2 out of 8); format: functional
Mus musculus [14] = assay: Tested for anticonvulsant activity by the antagonism of audiogenic seizures in DBA/2 mice and number of mice protected from tonic seizure/number of mice tested at 250 mg/kg dose after 30 mins was reported (5 out of 8); format: functional
Mus musculus [15] = assay: Tested for anticonvulsant activity by the antagonism of audiogenic seizures in DBA/2 mice and number of mice protected from tonic seizure/number of mice tested at 250 mg/kg dose after 60 mins was reported (4 out of 8); format: functional
Mus musculus [16] = assay: Tested for anticonvulsant activity by the antagonism of audiogenic seizures in DBA/2 mice and number of mice protected from tonic seizure/number of mice tested at 250 mg/kg dose after 15 mins was reported (4 out of 8); format: functional
Mus musculus [17] = assay: Tested for anticonvulsant activity by the antagonism of audiogenic seizures in DBA/2 mice and number of mice protected from tonic seizure/number of mice tested at 250 mg/kg dose after 30 mins was reported (1 out of 6); format: functional
Mus musculus [18] = assay: Tested for anticonvulsant activity by the antagonism of audiogenic seizures in DBA/2 mice and number of mice protected from tonic seizure/number of mice tested at 250 mg/kg dose after 120 mins was reported (0 out of 6); format: functional
Mus musculus [19] = assay: Tested for anticonvulsant activity by the antagonism of audiogenic seizures in DBA/2 mice and number of mice protected from tonic seizure/number of mice tested at 250 mg/kg dose after 60 mins was reported (1 out of 6); format: functional
Mus musculus [20] = assay: Tested for the effective dose required for anticonvulsant activity when given intraperitoneally; format: functional; settings: ip
Mus musculus [21] = assay: Tested for anticonvulsant activity by the antagonism of audiogenic seizures in DBA/2 mice and number of mice protected from tonic seizure/number of mice tested at 250 mg/kg dose after 120 mins was reported (3 out of 7); format: functional
Mus musculus [22] = assay: Tested for anticonvulsant activity by the antagonism of audiogenic seizures in DBA/2 mice and number of mice protected from tonic seizure/number of mice tested at 250 mg/kg dose after 15 mins was reported (5 out of 7); format: functional
Mus musculus [23] = species on record: Mus musculus; assay: Tested for the anticonvulsant activity by the antagonism of the audiogenic seizures in DBA/2 mice after 30 minutes; format: functional; settings: 0.5 h
Mus musculus [24] = assay: Tested for anticonvulsant activity by the antagonism of audiogenic seizures in DBA/2 mice and number of mice protected from tonic seizure/number of mice tested at 250 mg/kg dose after 60 mins was reported (7 out of 8); format: functional
Mus musculus [25] = assay: Tested for anticonvulsant activity by the antagonism of audiogenic seizures in DBA/2 mice and number of mice protected from tonic seizure/number of mice tested at 250 mg/kg dose after 120 mins was reported (2 out of 8); format: functional
Mus musculus [26] = assay: Tested for anticonvulsant activity by the antagonism of audiogenic seizures in DBA/2 mice and number of mice protected from tonic seizure/number of mice tested at 250 mg/kg dose after 120 mins was reported (3 out of 9); format: functional
Mus musculus [27] = assay: Tested for anticonvulsant activity by the antagonism of audiogenic seizures in DBA/2 mice and number of mice protected from tonic seizure/number of mice tested at 250 mg/kg dose after 15 mins was reported (0 out of 8); format: functional
Mus musculus [28] = assay: Tested for anticonvulsant activity by the antagonism of audiogenic seizures in DBA/2 mice and number of mice protected from tonic seizure/number of mice tested at 250 mg/kg dose after 30 mins was reported (1 out of 8); format: functional
Mus musculus [29] = assay: Tested for anticonvulsant activity by the antagonism of audiogenic seizures in DBA/2 mice and number of mice protected from tonic seizure/number of mice tested at 250 mg/kg dose after 60 mins was reported (3 out of 8); format: functional
Mus musculus [30] = assay: Tested for anticonvulsant activity by the antagonism of audiogenic seizures in DBA/2 mice and number of mice protected from tonic seizure/number of mice tested at 250 mg/kg dose after 30 mins was reported (7 out of 7); format: functional
Mus musculus [31] = assay: Tested for anticonvulsant activity by the antagonism of audiogenic seizures in DBA/2 mice and number of mice protected from tonic seizure/number of mice tested at 250 mg/kg dose after 15 mins was reported (7 out of 7); format: functional
Mus musculus [32] = assay: Tested for anticonvulsant activity by the antagonism of audiogenic seizures in DBA/2 mice and number of mice protected from tonic seizure/number of mice tested at 250 mg/kg dose after 60 mins was reported (1 out of 7); format: functional
Mus musculus [33] = assay: Tested for anticonvulsant activity by the antagonism of audiogenic seizures in DBA/2 mice and number of mice protected from tonic seizure/number of mice tested at 250 mg/kg dose after 120 mins was reported (1 out of 7); format: functional

**Q.** Which results are given for `O=C(OCCN1CCCC1)c1cc(O)c2c(Cl)cc(Cl)cc2n1`?
**A.** No. of mouse protected (Mus musculus [1]): 8; ED50 (Mus musculus [2]): 128 mg/kg; No. of mouse protected (Mus musculus [3]): 7; No. of mouse protected (Mus musculus [4]): 5; No. of mouse protected (Mus musculus [5]): 0

**Q.** Which results are given for `CCN(CC)CCOC(=O)c1cc(O)c2c(Cl)cc(Cl)cc2n1`?
**A.** half-life [6]: 22 min; No. of mouse protected (Mus musculus [1]): 8; ED50 (Mus musculus [2]): 98 mg/kg; No. of mouse protected (Mus musculus [7]): 8; No. of mouse protected (Mus musculus [8]): 5; No. of mouse protected (Mus musculus [9]): 1; ED50 (Mus musculus [10]): 171 mg/kg

**Q.** Which “No. of mouse protected” value (Mus musculus [11]) does the source give for `O=C(NCCN1CCOCC1)c1cc(O)c2c(Cl)cc(Cl)cc2n1` here?
**A.** 1

**Q.** And the “No. of mouse protected” value (Mus musculus [12])?
**A.** 0

**Q.** And the “No. of mouse protected” value (Mus musculus [13])?
**A.** 2

**Q.** And the “No. of mouse protected” value (Mus musculus [5])?
**A.** 0

**Q.** For `CN(C)CCNC(=O)c1cc(O)c2c(Cl)cc(Cl)cc2n1`, which “No. of mouse protected” value (Mus musculus [11]) is on record?
**A.** 1

**Q.** What about the “No. of mouse protected” value (Mus musculus [14]) of the same molecule?
**A.** 5

**Q.** What about the “No. of mouse protected” value (Mus musculus [15]) of the same molecule?
**A.** 4

**Q.** And the “No. of mouse protected” value (Mus musculus [9])?
**A.** 1

**Q.** And the ED50 (Mus musculus [10])?
**A.** 303 mg/kg

**Q.** With `C[N+](C)(C)CCNC(=O)c1cc(O)c2c(Cl)cc(Cl)cc2n1.[I-]` as the molecule, how does the “No. of mouse protected” value (Mus musculus [16]) read?
**A.** 4

**Q.** And the “No. of mouse protected” value (Mus musculus [17])?
**A.** 1

**Q.** And the “No. of mouse protected” value (Mus musculus [18])?
**A.** 0

**Q.** What about the “No. of mouse protected” value (Mus musculus [19]) of the same molecule?
**A.** 1

**Q.** What does the source list for `O=C(O)c1cc(O)c2c(Cl)cc(Cl)cc2n1`?
**A.** No. of mouse protected (Mus musculus [12]): 0; ED50 (Mus musculus [20]): 250 mg/kg

**Q.** With `CN(C)CCCOC(=O)c1cc(O)c2c(Cl)cc(Cl)cc2n1` as the molecule, how does the “No. of mouse protected” value (Mus musculus [21]) read?
**A.** 3

**Q.** What about the “No. of mouse protected” value (Mus musculus [22]) of the same molecule?
**A.** 5

**Q.** What about the “No. of mouse protected” value (Mus musculus [3]) of the same molecule?
**A.** 7

**Q.** What about the “No. of mouse protected” value (Mus musculus [13]) of the same molecule?
**A.** 2

**Q.** Which ED50 (Mus musculus [23]) does the source give for `CC(CN(C)C)OC(=O)c1cc(O)c2c(Cl)cc(Cl)cc2n1` (stereo unspecified) here?
**A.** 138 mg/kg

**Q.** And the “No. of mouse protected” value (Mus musculus [1])?
**A.** 8

**Q.** What about the ED50 (Mus musculus [2]) of the same molecule?
**A.** 62 mg/kg

**Q.** What about the “No. of mouse protected” value (Mus musculus [7]) of the same molecule?
**A.** 8

**Q.** And the “No. of mouse protected” value (Mus musculus [24])?
**A.** 7

**Q.** And the “No. of mouse protected” value (Mus musculus [25])?
**A.** 2

**Q.** For `O=C(OCCN1CCOCC1)c1cc(O)c2c(Cl)cc(Cl)cc2n1`, which “No. of mouse protected” value (Mus musculus [26]) is on record?
**A.** 3

**Q.** And the “No. of mouse protected” value (Mus musculus [27])?
**A.** 0

**Q.** And the “No. of mouse protected” value (Mus musculus [28])?
**A.** 1

**Q.** And the “No. of mouse protected” value (Mus musculus [29])?
**A.** 3

**Q.** With `CC(C)N(CCOC(=O)c1cc(O)c2c(Cl)cc(Cl)cc2n1)C(C)C` as the molecule, how does the “No. of mouse protected” value (Mus musculus [30]) read?
**A.** 7

**Q.** What about the “No. of mouse protected” value (Mus musculus [31]) of the same molecule?
**A.** 7

**Q.** And the ED50 (Mus musculus [2])?
**A.** 152 mg/kg

**Q.** What about the “No. of mouse protected” value (Mus musculus [32]) of the same molecule?
**A.** 1

**Q.** And the “No. of mouse protected” value (Mus musculus [33])?
**A.** 1
